Reference: US20230085307A1, “PYRIDAZINONE COMPOUND AND HERBICIDE” (NISSAN CHEMICAL CORPORATION, priority 2019, published 2023)

Assays:
wild oat [1] = assay: Test Example 5: herbicidal effect by foliage application, plastic box (Table 20, symbol I); assay type: in vivo, wild oat (Avena fatua); details: 320 g/ha, foliage application after 14-day growth, evaluated three weeks after application
In short: (§1)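 Sow seeds spot-wise in sterilized diluvial soil; cover with ~1.5 cm soil. Grow 14 days in greenhouse, 25° C. to 30° C. Spray foliage with emulsion diluted to predetermined amount. Rate effect after 3 weeks.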

chickweed [2] = assay: Test Example 5: herbicidal effect by foliage application, plastic box (Table 20, symbol P); assay type: in vivo, common chickweed (Stellaria media); details: 320 g/ha, foliage application after 14-day growth, evaluated three weeks after application
In short: as §1

redroot pigweed [3] = assay: Test Example 5: herbicidal effect by foliage application, plastic box (Table 20, symbol N); assay type: in vivo, redroot pigweed (Amaranthus retroflexus); details: 320 g/ha, foliage application after 14-day growth, evaluated three weeks after application
In short: as §1

wild oat [4] = assay: Test Example 4: herbicidal effect by soil treatment (Table 19, symbol I); assay type: in vivo, wild oat (Avena fatua); details: amount of applied herbicide 320 g/ha
In short: (§2)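 Applied as a water-diluted emulsion, the compound was sprayed onto soil covering newly sown seeds. Evaluation came three weeks after application, in a greenhouse held at 25° C. to 30° C.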

Italian ryegrass [5] = assay: Test Example 5: herbicidal effect by foliage application, plastic box (Table 20, symbol K); assay type: in vivo, Italian ryegrass (Lolium multiflorum); details: 320 g/ha, foliage application after 14-day growth, evaluated three weeks after application
In short: as §1

persian speedwell [6] = assay: Test Example 5: herbicidal effect by foliage application, plastic box (Table 20, symbol R); assay type: in vivo, Persian speedwell (Veronica persica); details: 320 g/ha, foliage application after 14-day growth, evaluated three weeks after application
In short: as §1

windgrass [7] = assay: Test Example 5: herbicidal effect by foliage application, plastic box (Table 20, symbol L); assay type: in vivo, windgrass (Apera spica-venti); details: 320 g/ha, foliage application after 14-day growth, evaluated three weeks after application
In short: as §1

rice flat sedge = assay: Test Example 3: herbicidal effect by foliage application, Wagner pot (Table 18, symbol E); assay type: in vivo, rice flat sedge (Cyperus iria); details: 320 g/ha
In short: (§3)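 Plants were sown in alluvial soil held under 0.1–0.5 cm standing water and grown 14 days in a greenhouse at 25–30 °C. An emulsifiable formulation, water-diluted to the set dose, was then sprayed onto the foliage, and effects were scored three weeks later using previously defined criteria.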

lambsquarters [8] = assay: Test Example 4: herbicidal effect by soil treatment (Table 19, symbol O); assay type: in vivo, lambsquarters (Chenopodium album); details: amount of applied herbicide 320 g/ha
In short: as §2

blackgrass = assay: Test Example 5: herbicidal effect by foliage application, plastic box (Table 20, symbol J); assay type: in vivo, blackgrass (Alopecurus myosuroides); details: 320 g/ha, foliage application after 14-day growth, evaluated three weeks after application
In short: as §1

barnyard grass [9] = assay: Test Example 5: herbicidal effect by foliage application, plastic box (Table 20, symbol H); assay type: in vivo, barnyard grass (Echinochloa crus-galli); details: 320 g/ha, foliage application after 14-day growth, evaluated three weeks after application
In short: as §1

southern crabgrass [10] = assay: Test Example 4: herbicidal effect by soil treatment (Table 19, symbol F); assay type: in vivo, southern crabgrass (Digitaria ciliaris); details: amount of applied herbicide 320 g/ha
In short: as §2

lambsquarters [11] = assay: Test Example 5: herbicidal effect by foliage application, plastic box (Table 20, symbol O); assay type: in vivo, lambsquarters (Chenopodium album); details: 320 g/ha, foliage application after 14-day growth, evaluated three weeks after application
In short: as §1

Italian ryegrass [12] = assay: Test Example 4: herbicidal effect by soil treatment (Table 19, symbol K); assay type: in vivo, Italian ryegrass (Lolium multiflorum); details: amount of applied herbicide 320 g/ha
In short: as §2

velvetleaf [13] = assay: Test Example 4: herbicidal effect by soil treatment (Table 19, symbol M); assay type: in vivo, velvetleaf (Abutilon theophrasti); details: amount of applied herbicide 320 g/ha
In short: as §2

velvetleaf [14] = assay: Test Example 5: herbicidal effect by foliage application, plastic box (Table 20, symbol M); assay type: in vivo, velvetleaf (Abutilon theophrasti); details: 320 g/ha, foliage application after 14-day growth, evaluated three weeks after application
In short: as §1

windgrass [15] = assay: Test Example 4: herbicidal effect by soil treatment (Table 19, symbol L); assay type: in vivo, windgrass (Apera spica-venti); details: amount of applied herbicide 320 g/ha
In short: as §2

redroot pigweed [16] = assay: Test Example 4: herbicidal effect by soil treatment (Table 19, symbol N); assay type: in vivo, redroot pigweed (Amaranthus retroflexus); details: amount of applied herbicide 320 g/ha
In short: as §2

green foxtail [17] = assay: Test Example 4: herbicidal effect by soil treatment (Table 19, symbol G); assay type: in vivo, green foxtail (Setaria viridis); details: amount of applied herbicide 320 g/ha
In short: as §2

persian speedwell [18] = assay: Test Example 4: herbicidal effect by soil treatment (Table 19, symbol R); assay type: in vivo, Persian speedwell (Veronica persica); details: amount of applied herbicide 320 g/ha
In short: as §2

green foxtail [19] = assay: Test Example 5: herbicidal effect by foliage application, plastic box (Table 20, symbol G); assay type: in vivo, green foxtail (Setaria viridis); details: 320 g/ha, foliage application after 14-day growth, evaluated three weeks after application
In short: as §1

Chinese sprangletop = assay: Test Example 3: herbicidal effect by foliage application, Wagner pot (Table 18, symbol D); assay type: in vivo, chinese sprangletop (Leptochloa chinensis); details: 320 g/ha
In short: as §3

barnyard grass [20] = assay: Test Example 3: herbicidal effect by foliage application, Wagner pot (Table 18, symbol H); assay type: in vivo, barnyard grass (Echinochloa crus-galli); details: 320 g/ha
In short: as §3

southern crabgrass [21] = assay: Test Example 5: herbicidal effect by foliage application, plastic box (Table 20, symbol F); assay type: in vivo, southern crabgrass (Digitaria ciliaris); details: 320 g/ha, foliage application after 14-day growth, evaluated three weeks after application
In short: as §1

chickweed [22] = assay: Test Example 4: herbicidal effect by soil treatment (Table 19, symbol P); assay type: in vivo, common chickweed (Stellaria media); details: amount of applied herbicide 320 g/ha
In short: as §2

barnyard grass [23] = assay: Test Example 4: herbicidal effect by soil treatment (Table 19, symbol H); assay type: in vivo, barnyard grass (Echinochloa crus-galli); details: amount of applied herbicide 320 g/ha
In short: as §2

SMILES: COc1ccccc1-c1sc2cc(OS(=O)(=O)C(F)(F)F)ccc2c1-c1c(O)c(C)nn(C)c1=O [3-161]
- herbicidal effect on I: wild oat (evaluation grade 0-5) (wild oat [1]): 0 (Herbicidal rate of 5% or less (almost no effect))
- herbicidal effect on P: chickweed (evaluation grade 0-5) (chickweed [2]): 5 (Herbicidal rate of 90% or more (almost completely withered))
- herbicidal effect on N: redroot pigweed (evaluation grade 0-5) (redroot pigweed [3]): 4 (Herbicidal rate of 70% or more and less than 90%)
- Herbicidal effect by soil treatment, I: wild oat (wild oat [4]): 0 (Herbicidal rate of 5% or less (almost no effect))
- herbicidal effect on K: Italian ryegrass (evaluation grade 0-5) (Italian ryegrass [5]): 4 (Herbicidal rate of 70% or more and less than 90%)
- herbicidal effect on R: persian speedwell (evaluation grade 0-5) (persian speedwell [6]): 5 (Herbicidal rate of 90% or more (almost completely withered))
- herbicidal effect on L: windgrass (evaluation grade 0-5) (windgrass [7]): 4 (Herbicidal rate of 70% or more and less than 90%)
- herbicidal effect on rice flat sedge (E) (rice flat sedge): 3 (Herbicidal rate of 40% or more and less than 70%)
- Herbicidal effect by soil treatment, O: lambsquarters (lambsquarters [8]): 0 (Herbicidal rate of 5% or less (almost no effect))
- herbicidal effect on J: blackgrass (evaluation grade 0-5) (blackgrass): 4 (Herbicidal rate of 70% or more and less than 90%)
- herbicidal effect on H: barnyard grass (evaluation grade 0-5) (barnyard grass [9]): 3 (Herbicidal rate of 40% or more and less than 70%)
- Herbicidal effect by soil treatment, F: southern crabgrass (southern crabgrass [10]): 0 (Herbicidal rate of 5% or less (almost no effect))
- herbicidal effect on O: lambsquarters (evaluation grade 0-5) (lambsquarters [11]): 3 (Herbicidal rate of 40% or more and less than 70%)
- Herbicidal effect by soil treatment, K: Italian ryegrass (Italian ryegrass [12]): 0 (Herbicidal rate of 5% or less (almost no effect))
- Herbicidal effect by soil treatment, M: velvetleaf (velvetleaf [13]): 0 (Herbicidal rate of 5% or less (almost no effect))
- herbicidal effect on M: velvetleaf (evaluation grade 0-5) (velvetleaf [14]): 2 (Herbicidal rate of 20% or more and less than 40%)
- Herbicidal effect by soil treatment, L: windgrass (windgrass [15]): 0 (Herbicidal rate of 5% or less (almost no effect))
- Herbicidal effect by soil treatment, N: redroot pigweed (redroot pigweed [16]): 4 (Herbicidal rate of 70% or more and less than 90%)
- Herbicidal effect by soil treatment, G: green foxtail (green foxtail [17]): 0 (Herbicidal rate of 5% or less (almost no effect))
- Herbicidal effect by soil treatment, R: persian speedwell (persian speedwell [18]): 0 (Herbicidal rate of 5% or less (almost no effect))
- herbicidal effect on G: green foxtail (evaluation grade 0-5) (green foxtail [19]): 3 (Herbicidal rate of 40% or more and less than 70%)
- herbicidal effect on Chinese sprangletop (D) (Chinese sprangletop): 3 (Herbicidal rate of 40% or more and less than 70%)
- herbicidal effect on barnyard grass (H) (barnyard grass [20]): 5 (Herbicidal rate of 90% or more (almost completely withered))
- herbicidal effect on F: southern crabgrass (evaluation grade 0-5) (southern crabgrass [21]): 0 (Herbicidal rate of 5% or less (almost no effect))
- Herbicidal effect by soil treatment, P: chickweed (chickweed [22]): 0 (Herbicidal rate of 5% or less (almost no effect))
- Herbicidal effect by soil treatment, H: barnyard grass (barnyard grass [23]): 0 (Herbicidal rate of 5% or less (almost no effect))
